Source: ChEMBL document CHEMBL2375313, “Synthesis, in vitro antitumor evaluation and DNA-binding study of novel tetrahydroquinolines and some derived tricyclic and tetracyclic ring systems” (Eur J Med Chem, 2013)

Columns and labels:
Type in all cases: functional
[1] = Cytotoxicity against human colon cancer cells after 48 hrs by sulphorhodamine B assay; settings: Cancer cell lines
[2] = Cytotoxicity against human renal cancer cells after 48 hrs by sulphorhodamine B assay; settings: Cancer cell lines
[3] = Cytotoxicity against human ovarian cancer cells after 48 hrs by sulphorhodamine B assay; settings: Cancer cell lines
[4] = Cytotoxicity against human breast cancer cells after 48 hrs by sulphorhodamine B assay; settings: Cancer cell lines
[5] = Cytotoxicity against human CNS cancer cells after 48 hrs by sulphorhodamine B assay; settings: Cancer cell lines
[6] = Cytotoxicity against human prostate cancer cells after 48 hrs by sulphorhodamine B assay; settings: Cancer cell lines
[7] = Cytotoxicity against human leukemia cells after 48 hrs by sulphorhodamine B assay; settings: Leukemia cell
[8] = Cytotoxicity against human non-small cell lung cancer cells after 48 hrs by sulphorhodamine B assay; settings: Cancer cell lines
[9] = Cytotoxicity against human melanoma cells after 48 hrs by sulphorhodamine B assay; settings: Melanoma cell
[10] = read-out: LC50 (the source's name)

O=c1[nH]cc(F)c(=O)[nH]1 [FLUOROURACIL]
GI50 [1]: 8.4 µM | TGI [1]: > 100 µM | CC50 [1, 10]: > 100 µM | GI50 [2]: 45.6 µM | TGI [2]: > 100 µM | GI50 [3]: 61.4 µM | TGI [3]: > 100 µM | CC50 [3, 10]: > 100 µM | GI50 [4]: 76.4 µM | TGI [4]: > 100 µM | TGI [5]: > 100 µM | GI50 [6]: 22.7 µM | TGI [6]: > 100 µM | TGI [7]: > 100 µM | GI50 [8]: > 100 µM | TGI [8]: > 100 µM | GI50 [9]: 70.6 µM | TGI [9]: > 100 µM | CC50 [9, 10]: > 100 µM
